The record followed here is paper PMC7407834, “Development of an LDL Receptor-Targeted Peptide Susceptible to Facilitate the Brain Access of Diagnostic or Therapeutic Agents” (Biology, 2020).

In assay [1] the test system is HUVEC, HepaRG, ACBRI376 and 1321N1 cells. Kind of assay: Endocytosis of rhodamine-coupled peptides, fluorescence microscopy (RRFL). In kind it is cell-based, human. The settings on record: all studied cell models, p < 0.001 in HepaRG, p < 0.05 in HUVEC. The procedure:
Cells were seeded onto coverslips coated with collagen (0.2 mg/mL, Sigma-Aldrich, Overijse, Belgium) at a density of 8 × 10^5 cells/well and grown for 3 days.
Cells were incubated for 2 h at 37 °C in the dark with LRPep1-rho or LRPep2-rho (peptides coupled to rhodamine, 200 µM in culture medium for HepaRG and HUVEC, 25 µM for ACBRI376 and 1321N1); the negative control was incubated with culture medium. The use of the rhodamine as a fluorescent probe was based on our previous experience with labeled peptides. Cells were rinsed two times with PBS (per liter: 8 g NaCl, 0.2 g KCl, 2.31 g Na2HPO4 × 12 H2O, 0.2 g KH2PO4, pH 7.4). […]
Fluorescence was observed using a Leica DM2000 microscope equipped with a light source EL 6000 and a DFC 425C camera (Leica Microsystems, Groot Bijgaarden, Belgium).
Figure 4 Endocytosis of the peptides LRPep1-rho and LRPep2-rho (stained in red) in (A) HUVEC and HepaRG cells and (B) ACBRI376 and 1321N1 cells. […] (C–F) The endocytosis of peptides, as well as the expression of LDLR, was semi-quantitatively evaluated by the measurement of fluorescent labeling using the ImageJ software and was normalized to the number of cells and to the background, giving the relative ratio of fluorescent labeling (RRFL); *: p < 0.05, **: p < 0.001. […]

The test system of assay [2] is ACBRI376 cells. Put plainly: Colocalization of LRPep2 with caveolae and lysosomes, ACBRI376. In kind it is cell-based, human. The procedure: (§1) Cells were first incubated with LRPep2-rho, as described above (cf. 2.4. Evaluation of the endocytosis potential of peptides LRPep1 and LRPep2), before being permeabilized with methanol. Then, cells were blocked with PBS supplemented with 5% NGS and 0.3% Triton X-100. Caveolae and lysosomes were detected using anti-caveolin 1 and anti-LAMP1 (Lysosomal-Associated Membrane Protein 1) antibodies, respectively, made in rabbit (both from Santa Cruz, Heidelberg, Germany) and incubated overnight at 4 µg/mL in PBS. Finally, cells were incubated for 1 h with an anti-rabbit IgG made in goat coupled to fluorescein (Vector Labconsult) at 20 µg/mL in phosphate buffer pH 7.8 supplemented with 0.5% BSA. Cells were mounted with Vectashield mounting medium with DAPI.

Assay [3] concerns HepaRG cells. Kind of assay: Colocalization of LRPep2 with caveolae and lysosomes, HepaRG. The settings on record: p < 0.001. In kind it is cell-based. As to the method: as §1
Assay [4] concerns N18(H) cells. Put plainly: Colocalization of LRPep2 with caveolae and lysosomes, N18(H). In kind it is cell-based. The settings on record: differentiated N18(H) cells. The procedure:
Experiments on N18(H) cells were performed after differentiation. Cells were immobilized on the appropriate support, and the differentiation was induced the second day, using medium containing 0.2% FBS for 48 h.
as §1

The test system of assay [5] is 1321N1 cells. Kind of assay: Colocalization of LRPep2 with caveolae and lysosomes, 1321N1. In kind it is cell-based. As to the method:
as §1

Take HPWCCGLRLDLR [LRPep2]: in assay [1], the “Endocytosis of the peptide compared with the other peptide” value is given as “more effective than that of peptide LRPep1”. The Endocytosis pathway entry in assay [2] (ACBRI376, caveolin-1 fluorescence increased (p < 0.05), LAMP1 decreased (p < 0.05)) was “endocytosed by the non-degradation pathway involving caveolae”; in assay [3], “significant increase of fluorescence was observed for lysosomes”; in assay [4], “both pathways”; in assay [5], “both pathways”. In addition, the “Mander's coefficient (M), colocalization of rhodamine with caveolin-1” value in assay [2] (ACBRI376 cells, LRPep2-rho 25 µM, 2 h 37 °C, Figure S4) is given as 82.7%.
